{"source": "patent US11173160B2", "about": "(UNIVERSITY OF PITTSBURGH—OF THE COMMONWEALTH SYSTEM OF …, priority 2019, dated 2021)", "key": {"[1]": {"tested_on": "ERK5 phosphorylation in DIPG-007 and DIPG-IV cells", "experiment": "Western blot of ERK5 phosphorylation in DIPG cells", "assay_type": "cell-based, human", "conditions": "50 nM", "experimental": "Cell pellets were lysed in PLC lysis buffer containing protease and phosphatase inhibitors (Roche Inc.). Protein lysates were quantified using the bicinchoninic acid (BCA) assay (Pierce Chemical Co., Rockford, Ill.). 30 μg of total protein lysate was loaded in 10% SDS-PAGE gels and electrophoresed. Proteins were transferred to PVDF membranes using a semi-dry transfer apparatus (Bio-Rad). Membranes were blocked for one hour and probed for various proteins overnight in 5% non-fat milk or 5% BSA in Tris Buffered Saline Solution, 0.5% Tween-20 (TBST) or Phosphate Buffered Saline Solution with 0.5% Tween-20 (PBST). Membranes were washed for 5 mins in TBST (3×) and incubated with horseradish peroxidase-conjugated antibodies specific for the primary antibody (BioRad Laboratories, Inc., CA, USA). Binding was detected using Chemiluminescence Reagent Plus (PerkinElmer Inc., MA, USA)."}, "TAK1": {"target": "TAK1 (Homo sapiens, UniProt O43318)", "sequence (O43318 1-303 limits assumed)": "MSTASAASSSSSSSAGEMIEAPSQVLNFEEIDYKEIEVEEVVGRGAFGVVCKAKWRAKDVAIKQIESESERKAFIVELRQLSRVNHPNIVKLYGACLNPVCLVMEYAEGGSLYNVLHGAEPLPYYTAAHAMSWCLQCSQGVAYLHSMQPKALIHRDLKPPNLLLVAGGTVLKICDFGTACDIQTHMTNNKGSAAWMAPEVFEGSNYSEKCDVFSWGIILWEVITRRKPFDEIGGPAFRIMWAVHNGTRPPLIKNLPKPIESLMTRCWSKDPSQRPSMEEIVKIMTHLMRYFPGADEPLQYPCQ", "conditions": "cited from earlier work"}, "TTK": {"target": "TTK (Homo sapiens, UniProt P33981)", "sequence (P33981 whole entry, species assumed)": "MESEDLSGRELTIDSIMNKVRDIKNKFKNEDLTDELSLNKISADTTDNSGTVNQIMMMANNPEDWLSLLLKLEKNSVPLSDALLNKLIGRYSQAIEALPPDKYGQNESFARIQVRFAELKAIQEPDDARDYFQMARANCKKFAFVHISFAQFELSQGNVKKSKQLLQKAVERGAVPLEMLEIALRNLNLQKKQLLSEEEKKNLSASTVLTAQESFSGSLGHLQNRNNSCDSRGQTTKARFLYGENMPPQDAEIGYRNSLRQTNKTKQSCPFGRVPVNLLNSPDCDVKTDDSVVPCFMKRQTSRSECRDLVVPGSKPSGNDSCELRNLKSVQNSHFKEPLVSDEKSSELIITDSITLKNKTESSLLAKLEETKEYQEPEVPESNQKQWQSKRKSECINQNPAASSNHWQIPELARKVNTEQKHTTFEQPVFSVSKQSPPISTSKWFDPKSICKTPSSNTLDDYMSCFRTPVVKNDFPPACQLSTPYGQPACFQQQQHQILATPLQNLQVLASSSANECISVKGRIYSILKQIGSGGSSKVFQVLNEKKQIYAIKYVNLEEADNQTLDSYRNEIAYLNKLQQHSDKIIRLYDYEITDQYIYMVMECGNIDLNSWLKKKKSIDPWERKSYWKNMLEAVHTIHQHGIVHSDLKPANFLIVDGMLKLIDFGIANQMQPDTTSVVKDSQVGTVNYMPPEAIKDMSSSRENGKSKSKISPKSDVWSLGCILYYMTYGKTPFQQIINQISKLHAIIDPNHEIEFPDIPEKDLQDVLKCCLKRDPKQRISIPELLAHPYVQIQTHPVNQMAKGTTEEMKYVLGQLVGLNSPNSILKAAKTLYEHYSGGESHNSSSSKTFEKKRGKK", "conditions": "cited from earlier work"}, "FAK": {"target": "FAK (Homo sapiens, UniProt Q05397)", "conditions": "cited from earlier work"}, "[2]": {"tested_on": "ERK5 auto-phosphorylation and cleaved PARP in tumor", "experiment": "western blot of tumor lysates from treated mice", "assay_type": "in vivo", "conditions": "mice sacrificed after 5 days of treatment with TG02", "protocol": "Total ERK5 was used as a loading control.\nAll animal procedures were carried out ethically according to animal user protocols approved by Institutional Animal Care Committee (IACUC). 4-6 week-old non-obese diabetic severe combined immune deficiency male or female mice (NOD-SCID-Prkdc^scid) were injected with 1×10^5 SU-DIPG-13p cells or 1×10^5 SF8628 DIPG cells. Cells were re-suspended in 2 μl of PBS and injected into the pons/midbrain using a stereotactic frame (Stoelting) and automated cell injector (Stoelting) with cells delivered over 4 minutes. Coordinates were as follows from the Lambda suture (x=0.8 mm, y=−0.8 mm, z=−5.0 mm). […]"}, "[3]": {"tested_on": "SF8628 intracranial xenografts", "experiment": "SF8628 orthotopic xenograft model", "assay_type": "in vivo, mice", "conditions": "for KI-67 staining (proliferation marker): 20 mg/kg, vs vehicle", "protocol": "(§1) All animal procedures were carried out ethically according to animal user protocols approved by Institutional Animal Care Committee (IACUC). 4-6 week-old non-obese diabetic severe combined immune deficiency male or female mice (NOD-SCID-Prkdc^scid) were injected with 1×10^5 SU-DIPG-13p cells or 1×10^5 SF8628 DIPG cells. Cells were re-suspended in 2 μl of PBS and injected into the pons/midbrain using a stereotactic frame (Stoelting) and automated cell injector (Stoelting) with cells delivered over 4 minutes. Coordinates were as follows from the Lambda suture (x=0.8 mm, y=−0.8 mm, z=−5.0 mm). […] Mice were treated for two cycles (5 days on, with two days off per cycle). Mice were sacrificed at sign of neurological duress and brains were extracted and fixed in 4% PFA.\n(§2) Also, the present disclosure used two established cell lines derived from transgenic mouse models of DIPG. Both lines are p53 null and express PDGFB, differing only in their H3.3 mutation status.\nIn a first DIPG mouse model, NOD-SCID gamma mice were injected with 2×10^5 SF8628 cells in the midbrain.\n(§3) For each cycle, the compounds were administered 20 mg/kg/day for 5 days, followed with 2 days of rest period. Each mice received 2 cycles of treatment."}, "IKK-β": {"target": "IKK-β (Homo sapiens, UniProt O14920)", "sequence (O14920 whole entry)": "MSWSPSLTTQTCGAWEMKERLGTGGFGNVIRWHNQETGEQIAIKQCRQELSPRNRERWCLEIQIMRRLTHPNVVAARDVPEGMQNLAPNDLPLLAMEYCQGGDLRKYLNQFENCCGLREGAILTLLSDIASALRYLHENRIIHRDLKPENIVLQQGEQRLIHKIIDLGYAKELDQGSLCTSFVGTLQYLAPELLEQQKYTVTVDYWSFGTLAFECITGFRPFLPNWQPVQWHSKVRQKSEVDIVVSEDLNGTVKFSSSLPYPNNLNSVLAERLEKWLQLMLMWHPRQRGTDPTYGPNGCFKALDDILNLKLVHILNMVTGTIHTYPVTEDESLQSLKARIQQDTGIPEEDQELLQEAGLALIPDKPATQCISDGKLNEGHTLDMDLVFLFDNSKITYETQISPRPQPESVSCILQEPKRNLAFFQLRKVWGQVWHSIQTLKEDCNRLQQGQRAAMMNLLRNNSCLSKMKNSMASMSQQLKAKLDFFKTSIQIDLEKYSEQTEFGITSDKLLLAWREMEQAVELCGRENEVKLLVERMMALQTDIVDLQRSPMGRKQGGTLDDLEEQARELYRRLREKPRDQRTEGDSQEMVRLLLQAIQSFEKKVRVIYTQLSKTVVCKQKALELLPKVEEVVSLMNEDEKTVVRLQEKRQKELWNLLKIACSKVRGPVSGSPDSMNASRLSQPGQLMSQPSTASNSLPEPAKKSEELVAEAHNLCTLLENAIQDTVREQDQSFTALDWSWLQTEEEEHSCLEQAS", "conditions": "cited from earlier work"}, "c-Raf": {"target": "c-Raf (Homo sapiens, UniProt P04049)", "conditions": "cited from earlier work"}, "Aurora A": {"target": "Aurora A (Homo sapiens, UniProt O14965)", "sequence (O14965 whole entry)": "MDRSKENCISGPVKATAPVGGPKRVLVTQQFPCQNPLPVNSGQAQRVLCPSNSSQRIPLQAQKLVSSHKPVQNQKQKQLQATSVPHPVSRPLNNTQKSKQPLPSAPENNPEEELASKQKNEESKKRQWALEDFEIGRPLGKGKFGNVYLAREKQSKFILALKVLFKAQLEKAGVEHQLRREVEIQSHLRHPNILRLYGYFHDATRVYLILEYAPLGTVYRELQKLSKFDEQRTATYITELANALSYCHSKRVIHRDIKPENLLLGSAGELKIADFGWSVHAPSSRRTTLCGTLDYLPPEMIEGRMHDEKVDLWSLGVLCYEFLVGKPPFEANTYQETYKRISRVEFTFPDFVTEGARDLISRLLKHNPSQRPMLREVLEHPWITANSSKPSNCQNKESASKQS", "conditions": "cited from earlier work"}, "PLK1": {"target": "PLK1 (Homo sapiens, UniProt P53350)", "sequence (P53350 whole entry, species assumed)": "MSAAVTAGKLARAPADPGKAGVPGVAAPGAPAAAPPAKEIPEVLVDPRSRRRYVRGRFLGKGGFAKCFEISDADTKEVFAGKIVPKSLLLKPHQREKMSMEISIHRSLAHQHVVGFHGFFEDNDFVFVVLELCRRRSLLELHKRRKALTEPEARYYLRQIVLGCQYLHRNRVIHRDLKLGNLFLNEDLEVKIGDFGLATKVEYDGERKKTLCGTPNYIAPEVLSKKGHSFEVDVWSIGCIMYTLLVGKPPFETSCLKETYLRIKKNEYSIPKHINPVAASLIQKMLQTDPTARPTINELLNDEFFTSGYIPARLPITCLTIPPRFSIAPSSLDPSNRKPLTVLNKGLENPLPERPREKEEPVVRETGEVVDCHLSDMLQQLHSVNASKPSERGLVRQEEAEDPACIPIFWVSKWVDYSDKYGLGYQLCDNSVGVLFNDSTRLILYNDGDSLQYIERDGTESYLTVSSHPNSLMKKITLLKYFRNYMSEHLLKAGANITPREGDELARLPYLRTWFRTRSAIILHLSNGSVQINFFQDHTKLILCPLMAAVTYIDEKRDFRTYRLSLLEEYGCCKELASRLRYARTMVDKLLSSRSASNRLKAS", "conditions": "cited from earlier work"}, "GSK3α": {"target": "GSK3α (Homo sapiens, UniProt P49840)", "sequence (P49840 whole entry)": "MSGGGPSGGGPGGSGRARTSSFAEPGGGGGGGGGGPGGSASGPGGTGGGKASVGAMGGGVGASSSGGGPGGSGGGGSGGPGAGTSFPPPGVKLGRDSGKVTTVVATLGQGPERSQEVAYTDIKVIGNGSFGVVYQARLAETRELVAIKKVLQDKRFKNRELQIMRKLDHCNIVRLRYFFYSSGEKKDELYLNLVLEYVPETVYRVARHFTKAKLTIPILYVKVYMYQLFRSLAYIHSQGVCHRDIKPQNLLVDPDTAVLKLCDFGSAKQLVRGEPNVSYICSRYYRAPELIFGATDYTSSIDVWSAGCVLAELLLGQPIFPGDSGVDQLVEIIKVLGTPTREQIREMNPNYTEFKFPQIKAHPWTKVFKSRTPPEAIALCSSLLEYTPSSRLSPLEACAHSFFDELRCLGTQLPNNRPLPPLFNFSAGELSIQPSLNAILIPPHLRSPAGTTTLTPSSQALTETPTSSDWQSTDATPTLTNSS", "conditions": "cited from earlier work"}, "[4]": {"conditions": "cited from earlier work"}, "EGFR": {"target": "EGFR (Homo sapiens, UniProt P00533)", "conditions": "cited from earlier work"}, "MKK6": {"target": "MKK6 (Homo sapiens, UniProt P52564)", "sequence (P52564 whole entry)": "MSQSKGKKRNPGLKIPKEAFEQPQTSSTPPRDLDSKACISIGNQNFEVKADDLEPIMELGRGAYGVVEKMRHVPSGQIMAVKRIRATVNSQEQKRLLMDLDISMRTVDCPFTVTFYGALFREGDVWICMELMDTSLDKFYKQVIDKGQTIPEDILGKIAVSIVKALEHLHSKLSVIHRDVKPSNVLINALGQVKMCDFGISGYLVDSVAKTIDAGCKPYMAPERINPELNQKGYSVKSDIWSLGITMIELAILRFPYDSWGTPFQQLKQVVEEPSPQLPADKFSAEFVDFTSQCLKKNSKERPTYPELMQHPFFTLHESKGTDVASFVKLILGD", "conditions": "cited from earlier work"}, "ZAP-70": {"target": "ZAP-70 (Homo sapiens, UniProt P43403)", "conditions": "cited from earlier work"}, "[5]": {"tested_on": "DIPG-IV cells overexpressing ERK5 and constitutively active ERK5", "experiment": "EC50 of TG02 in DIPG-IV cells expressing ERK5-HA or ERK5-HA T733E", "assay_type": "cell-based, human", "protocol": "(§4) Direct cell counts were performed using the Countess II FL Automated Cell Counter (ThermoFisher Scientific). Alamar blue viability (ThermoFisher Scientific) and the 5-bromo-2′-deoxyuridine (BrdU) incorporated cell proliferation assay (Cell Signaling Technology Cat #6813) were performed using the manufacturer's standard protocol. EC50 curve analysis was performed using raw fluorescent Alamar blue values that were inputted into PRISM 7.0. Drug concentrations were log 10 transformed and values normalized to percent viability with respect to vehicle treated cells. EC50 values were interpolated from a log inhibitor vs. normalized response with variable slope using a least square fit model."}, "four DIPG cell lines": {"tested_on": "four DIPG cell lines", "experiment": "viability of DIPG cell lines treated in vitro with TG02", "assay_type": "cell-based, human", "protocol": "as §4"}, "[6]": {"target": "(Homo sapiens, UniProt O15264)", "conditions": "Source Invitrogen; 10-point titration in duplicates, done once; cited from earlier work"}, "TYRO3": {"target": "TYRO3 (Homo sapiens, UniProt Q06418)", "sequence (Q06418 41-890)": "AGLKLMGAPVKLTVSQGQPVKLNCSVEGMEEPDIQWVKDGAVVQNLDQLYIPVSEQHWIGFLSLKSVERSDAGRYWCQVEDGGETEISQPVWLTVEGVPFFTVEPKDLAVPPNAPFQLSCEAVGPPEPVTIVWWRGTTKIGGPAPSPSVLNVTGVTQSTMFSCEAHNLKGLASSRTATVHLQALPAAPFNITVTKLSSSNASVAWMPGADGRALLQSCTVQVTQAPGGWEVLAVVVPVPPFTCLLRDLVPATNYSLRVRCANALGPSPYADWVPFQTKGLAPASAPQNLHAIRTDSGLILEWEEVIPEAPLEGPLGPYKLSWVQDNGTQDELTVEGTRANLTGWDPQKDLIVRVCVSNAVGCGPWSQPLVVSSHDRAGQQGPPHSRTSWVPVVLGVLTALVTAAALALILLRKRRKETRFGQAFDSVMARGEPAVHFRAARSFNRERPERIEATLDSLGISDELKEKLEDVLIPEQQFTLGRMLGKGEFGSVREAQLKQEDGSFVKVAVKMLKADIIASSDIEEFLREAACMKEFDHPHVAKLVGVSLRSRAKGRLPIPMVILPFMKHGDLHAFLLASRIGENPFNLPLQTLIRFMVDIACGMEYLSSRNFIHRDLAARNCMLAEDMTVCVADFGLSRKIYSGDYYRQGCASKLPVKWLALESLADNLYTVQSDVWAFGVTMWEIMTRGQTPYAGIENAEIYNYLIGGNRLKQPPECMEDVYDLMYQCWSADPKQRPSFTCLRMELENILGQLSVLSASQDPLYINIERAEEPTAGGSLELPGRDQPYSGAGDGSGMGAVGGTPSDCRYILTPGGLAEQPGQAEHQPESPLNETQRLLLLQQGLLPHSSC", "conditions": "Source Invitrogen; 10-point titration in duplicates, done once; cited from earlier work"}, "[7]": {"tested_on": "normal astrocytes or neural stem cells", "experiment": "viability of normal cells treated with TG02", "assay_type": "cell-based, human", "conditions": "nM ranges", "text": "Brain gliomas express high levels of ERK5 (FIG. 29)."}, "[8]": {"tested_on": "DIPG-13p orthotopic xenografts", "experiment": "DIPG-13p orthotopic xenograft model", "assay_type": "in vivo, mice", "conditions": "for survival vs vehicle: 20 mg/kg/day for 5 days, 2 days rest", "protocol": "as §1, §2\nIn a second DIPG mouse model, mice were injected with 1×10^5 DIPG13p cells in the midbrain of NOD-SCID gamma mice.\nas §3"}, "MAPKAP-K2": {"target": "MAPKAP-K2 (Homo sapiens, UniProt P49137)", "sequence (P49137 whole entry)": "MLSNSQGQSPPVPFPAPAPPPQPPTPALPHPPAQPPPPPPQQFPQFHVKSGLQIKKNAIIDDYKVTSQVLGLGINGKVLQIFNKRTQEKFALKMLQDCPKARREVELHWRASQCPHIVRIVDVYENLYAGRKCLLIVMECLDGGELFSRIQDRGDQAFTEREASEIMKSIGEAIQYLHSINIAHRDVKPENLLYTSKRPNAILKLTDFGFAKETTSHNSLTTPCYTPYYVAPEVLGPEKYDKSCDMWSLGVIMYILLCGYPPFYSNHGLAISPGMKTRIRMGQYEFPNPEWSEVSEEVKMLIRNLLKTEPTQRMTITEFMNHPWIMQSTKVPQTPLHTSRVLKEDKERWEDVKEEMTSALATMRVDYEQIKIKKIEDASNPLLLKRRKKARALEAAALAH", "conditions": "cited from earlier work"}, "[9]": {"conditions": "cited from earlier work", "remark": "listed apart in the source"}, "[10]": {"conditions": "2 cycles, listed as TG02 obtained from Adastra Pharmaceuticals"}}, "note": "Entries after “also recorded” stand apart in the source; their conditions may differ. Where two headings read alike, the source gives them in different places.", "data": [{"smiles": "CN1C/C=C/CCOc2cccc(c2)-c2ccnc(n2)Nc2cccc(c2)C1", "note": "[TG02, (16E)-14-methyl-20-oxa-5,7,14,27-tetraazatetracyclo[19.3.1.12,6.18,12]heptacosa-1(25),2(27),3,5,8(26),9,11,16,21,23-decaene]", "values": [{"measurement": "ERK5 Thr218/Tyr220 phosphorylation (regulated by MEK5)", "setting": "[1]", "value": "did not inhibit"}, {"measurement": "ERK5 auto-phosphorylation and ERK5 activity sites (Ser731 and Thr733)", "setting": "[1]", "value": "confirmed to inhibit"}, {"measurement": "inhibition at 100 nm", "setting": "TAK1", "value": "less than 50%"}, {"measurement": "inhibition at 100 nm", "setting": "TTK", "value": "less than 50%"}, {"measurement": "inhibition at 100 nm", "setting": "FAK", "value": "less than 50%"}, {"measurement": "in vivo ERK5 auto-phosphorylation", "setting": "[2]", "value": "inhibition of ERK5 auto-phosphorylation"}, {"measurement": "in vivo apoptosis by cleaved PARP", "setting": "[2]", "value": "induction of apoptosis"}, {"measurement": "KI-67 staining (proliferation marker)", "setting": "[3]; 2 cycles", "value": "reduced KI-67 staining"}, {"measurement": "KI-67 staining (proliferation marker)", "setting": "[3]; [10]", "value": "significantly reduced KI67 expression; also recorded: significantly reduced K167 expression"}, {"measurement": "survival vs vehicle", "setting": "[3]; 20 mg/kg/day for 5 days, 2 days rest, 2 cycles", "value": "statistically significant increased median survival"}, {"measurement": "median survival", "setting": "[3]; TG02 20 mg/kg, 2 cycles of 5 days on 2 days off, vehicle 33 days", "value": 59, "unit": "days"}, {"measurement": "extension of median survival time", "setting": "[3]; mice intracranially engrafted with DIPG cells", "value": "nearly two-fold"}, {"measurement": "inhibition at 100 nm", "setting": "IKK-β", "value": "less than 50%"}, {"measurement": "inhibition at 100 nm", "setting": "c-Raf", "value": "less than 50%"}, {"measurement": "inhibition at 100 nm", "setting": "Aurora A", "value": "less than 50%"}, {"measurement": "inhibition at 100 nm", "setting": "PLK1", "value": "less than 50%"}, {"measurement": "inhibition at 100 nm", "setting": "GSK3α", "value": "less than 50%"}, {"measurement": "dose-limiting toxicities (DLTs), DD regimen", "setting": "[4]; human, in vivo", "value": "grade 3 diarrhea (n=1) at 200 mg of TG02, and grade 4 neutropenia and grade 3 increase in ALT (n=1) at 250 mg of TG02"}, {"measurement": "dose-limiting toxicities (DLTs), MN regimen", "setting": "[4]; human, in vivo", "value": "grade 4 lymphopenia (n=2) and increase in ALT (n=1) at 250 mg of TG02"}, {"measurement": "MTD, metronomic (MN) temozolomide regimen", "setting": "[4]; temozolomide 50 mg/m^2", "value": 200, "unit": "mg"}, {"measurement": "MTD, dose-dense (DD) temozolomide regimen", "setting": "[4]; temozolomide 125 m/m^2 per day 7 days on/7 days off", "value": 250, "unit": "mg"}, {"measurement": "inhibition at 100 nm", "setting": "EGFR", "value": "less than 50%"}, {"measurement": "inhibition at 100 nm", "setting": "MKK6", "value": "less than 50%"}, {"measurement": "inhibition at 100 nm", "setting": "ZAP-70", "value": "less than 50%"}, {"measurement": "EC50", "setting": "[5]; Homo sapiens, read-out: EC50 to treatment with TG02, overexpression of ERK5 and constitutively active ERK in DIPG-IV cells", "value": "> 1000", "unit": "nM"}, {"measurement": "cleaved Caspase 3/7 levels", "setting": "[5]; TG02 100 nM, ERK5-HA or ERK5-HA T733E vs empty vector", "value": "reduced cleaved Caspase 3/7 levels"}, {"measurement": "IC50", "setting": "four DIPG cell lines; Homo sapiens, read-out: IC50 of TG02 in vitro against DIPG cell lines, approximate", "value": "~100", "unit": "nM"}, {"measurement": "EC50", "setting": "four DIPG cell lines; Homo sapiens, median of four DIPG cell lines in vitro, read-out: median EC50 (decreased viability)", "value": 75, "unit": "nM"}, {"measurement": "EC50", "setting": "four DIPG cell lines; Homo sapiens, range over four DIPG cell lines in vitro, read-out: EC50 range (decreased viability)", "value": "60 to 93", "unit": "nM"}, {"measurement": "apoptosis", "setting": "four DIPG cell lines; four DIPG cell lines in vitro", "value": "increased apoptosis"}, {"measurement": "IC50", "setting": "[6]", "value": 56, "unit": "nM"}, {"measurement": "IC50", "setting": "TYRO3", "value": 36, "unit": "nM"}, {"measurement": "toxicity to normal cells", "setting": "[7]", "value": "not toxic"}, {"measurement": "K167 expression (proliferation marker)", "setting": "[8]; 20 mg/kg, 2 cycles, vs vehicle", "value": "significantly reduced K167 expression"}, {"measurement": "survival vs vehicle", "setting": "[8]; 2 cycles", "value": "statistically significant increased median survival"}, {"measurement": "survival vs vehicle", "setting": "[8]; [10]", "value": "extended survival"}, {"measurement": "median survival", "setting": "[8]; TG02 20 mg/kg, 2 cycles of 5 days on 2 days off, vehicle 22.5 days", "value": 40, "unit": "days"}, {"measurement": "inhibition at 100 nm", "setting": "MAPKAP-K2", "value": "less than 50%"}, {"measurement": "most common toxicities (≥20%)", "setting": "[9]; adults with acute leukemia", "value": "nausea, vomiting, fatigue, abdominal pain, diarrhea, constipation, and hypophosphatemia"}, {"measurement": "serious adverse events", "setting": "[9]; adults with hematologic malignancies", "value": "nausea and vomiting (grades 2 and 3), fatigue (grade 3), altered mental status (grade 2), rash (grade 3), thrombocytopenia (grade 4), and neutropenic fever with sepsis (grade 3)"}, {"measurement": "maximum tolerated dose (MTD)", "setting": "[9]; intermittent TG02 with fixed doses of carfilzomib, twice a week for 21 of 28 days", "value": 250, "unit": "mg per dose"}]}]}
